The series can be described thus: Secondary structure analysis by circular dichroism (helical content). As to conditions: for Helical content (%) 30% TFE: PBS containing 30% trifluoroethanol, 50 μM peptide; for Helical content (%) PBS: PBS pH 7.0, 50 μM peptide. The class given is physicochemical. Here is the method: The secondary structures of peptides synthesized in the above Example were analyzed by means of circular dichroism and the circular dichroism spectra of synthesized peptides were analyzed by using 715 CD spectropolarimeter (Jasco Co., Ltd., JAPAN). The peptides of WT(SEQ ID NO. 4), MT(SEQ ID NO. 5), Ncap-MT(SEQ ID NO. 7), Caps-WT(SEQ ID NO. 8), Caps-MT(SEQ ID NO. 9) were dissolved in PBS(pH 7.0) with 100 mM sodium phosphate and 150 mM NaCl to make the final concentration of each peptide 50 μM and were placed for spectrum analyses.
(2)Analyses of Secondary Structures of Peptides in Phosphate Buffered Saline (PBS) containing Trifluoroethanol Experiments were performed the same as described in the above Experimental Example 1 (1) with the exception that the PBS contained 30% trifluoroethanol.
In general terms: CD spectra are sensitive to the conformation of chiral molecules.

Where no end group is shown, it is not given here.

In the case of “APKEWMAWAREIAAYAKLIAALI-NH2 [Ncap-MT, APKEWMaWaREIaaYakLIaaLI]”, the “Helical content (%) 30% TFE” value came out at 68% and the “Helical content (%) PBS” value is 69%.
For “APKEWMEWDREINNYTSLIHSLIKQGI-NH2 [Caps-WT]”, the “Helical content (%) 30% TFE” value is given as 77% and the “Helical content (%) PBS” value was 21%.
For WMEWDREINNYTSLIHSLI [WT], the “Helical content (%) 30% TFE” value is recorded as 24% and the “Helical content (%) PBS” value is 18%.

The values are drawn from US6489449B2, “Peptides for inhibition of HIV infection” (priority 2000, dated 2002).
